Experimental data published in the NIST ThermoML archive (doi:10.1016/j.fluid.2018.05.028).
± gives the expanded uncertainty stated by the source.

Assay: xn = mol fraction of the nth substance listed
Conditions: 101 kPa, Liquid; for mass density: Vibrating tube method; for viscosity: Concentric cylinders viscometry; for speed of sound: Single path-length method

CCCCCCCCCCCCCCCC [hexadecane] + CCCCO
Conditions | mass density, 303.15 K [kg/m3] | mass density, 308.15 K [kg/m3] | mass density, 313.15 K [kg/m3] | speed of sound, 308.15 K [m/s] | speed of sound, 313.15 K [m/s] | speed of sound, 318.15 K [m/s] | viscosity, 308.15 K [mPa·s] | viscosity, 313.15 K [mPa·s] | viscosity, 318.15 K [mPa·s]
x2 = 0 | – | 762.95 ± 0.83 | 759.49 ± 0.83 | 1301.3 ± 1 | 1283.1 ± 1 | 1265 ± 1 | 2.432 ± 0.017 | 2.199 ± 0.016 | 1.996 ± 0.015
x2 = 0.1 | – | 763.28 ± 0.83 | 759.74 ± 0.83 | 1293.2 ± 0.96 | 1274.9 ± 0.96 | 1256.7 ± 0.96 | 2.283 ± 0.016 | 2.064 ± 0.015 | 1.871 ± 0.014
x2 = 0.2 | 767.77 ± 0.82 | 764.19 ± 0.82 | 760.61 ± 0.82 | 1287 ± 0.91 | 1268.5 ± 0.91 | 1250.3 ± 0.91 | 2.217 ± 0.016 | 2.004 ± 0.015 | 1.815 ± 0.014
x2 = 0.3 | 769.03 ± 0.82 | 765.42 ± 0.82 | 761.8 ± 0.82 | 1280.5 ± 0.86 | 1262.1 ± 0.86 | 1243.8 ± 0.86 | 2.144 ± 0.015 | 1.939 ± 0.014 | 1.756 ± 0.013
x2 = 0.4 | 770.64 ± 0.82 | 766.99 ± 0.82 | 763.33 ± 0.82 | 1273.5 ± 0.81 | 1255.1 ± 0.81 | 1236.9 ± 0.81 | 2.092 ± 0.015 | 1.89 ± 0.014 | 1.709 ± 0.013
x2 = 0.5 | 772.74 ± 0.82 | 769.05 ± 0.82 | 765.35 ± 0.82 | 1266.1 ± 0.76 | 1247.7 ± 0.76 | – | 2.053 ± 0.014 | 1.851 ± 0.013 | 1.67 ± 0.013
x2 = 0.6 | 775.47 ± 0.82 | 771.75 ± 0.82 | 768.01 ± 0.82 | 1257.8 ± 0.71 | 1239.6 ± 0.71 | – | 2.012 ± 0.014 | 1.811 ± 0.013 | 1.631 ± 0.012
x2 = 0.7 | 779.07 ± 0.81 | 775.31 ± 0.81 | 771.52 ± 0.82 | 1248.2 ± 0.66 | 1230.1 ± 0.66 | – | 2.001 ± 0.013 | 1.794 ± 0.013 | 1.613 ± 0.012
x2 = 0.8 | 783.97 ± 0.81 | 780.17 ± 0.81 | 776.34 ± 0.81 | 1236.8 ± 0.62 | 1219 ± 0.61 | – | 1.992 ± 0.013 | 1.781 ± 0.012 | 1.593 ± 0.012
x2 = 0.9 | 790.97 ± 0.81 | 787.14 ± 0.81 | 783.27 ± 0.81 | 1222.8 ± 0.57 | 1205.5 ± 0.57 | – | 1.967 ± 0.013 | 1.755 ± 0.012 | 1.564 ± 0.011
